Assay results from patent US4454128A, “6α-Methoxy-penicillins” (Dr. Karl Thomae GmbH, priority 1981, dated 1984).
≈ marks a conversion by molar mass, not a printed value. Read-outs that look alike come from different tables or passages of the source.

Key:
[1] = tested on: Proteus rettgeri BC 7; assay: In vitro MIC, series dilution test in microtiter system; assay type: cell-based; conditions: Providencia rettgeri, BC7; Prot. rettg. BC 7; 18 to 20 hours at 37° C.; read-out: minimum inhibitory concentration (MIC)
Method: (§1) For the tests, the method of the series dilution test in the microtiter system was used. The substances were tested for bacteriostasis in a liquid medium. The bacteriostatic activity was tested at the following concentration: 128; 64; 32; 16; 8; 4; 2; 1; 0.5; 0.25; 0.12; 0.06 μg/ml.
(§2) A nutrient medium having the following composition was used: 10 gm of peptone, 8 gm of meat extract oxoid, 3 gm of sodium chloride, 2 gm of sec. sodium phosphate are made up to […] with distilled water (pH 7.2 to 7.4). The age of the primary cultures was about 20 hours.
(§3) The bacterial suspension was adjusted, using the photometer (according to "Eppendorf") (test tube diameter 14 mm, filter 546 nm) by reference to the turbidity of a barium sulfate comparison suspension which was produced by a barium sulfate suspension formed by the addition of 3.0 ml of 1% barium chloride solution to 97 ml of 1% sulfuric acid. After adjustment, Streptococcus aronson was diluted in the ratio 1:15 and the other test pathogens were diluted in the ratio 1:1500 with a common salt solution.
(§4) 16 mg of the test substance were weighed in 10 ml measuring flasks and solvent was added up to the mark. Further dilutions in the series were made with distilled water or the solvent in question.
(§5) The depressions in the microtiter plates were filled with 0.2 ml of nutrient medium, 0.01 ml of the corresponding diluted substance and a drop of bacterial suspension (0.01 ml), and incubated for 18 to 20 hours at 37° C. A solvent check was carried out continuously at the same time.
(§6) The reading was taken macroscopically, and the respective limiting concentration (=the lower concentration still having bateriostatic activity) was determined.
(§7) The following were used as test organisms:
(§8) Escherichia coli ATCC 11 775, Serratia marcescens ATCC 13 880, Klebsiella pneumoniae ATCC 10 031 and BC 6, Proteus Mirabilis BC 17, Proteus rettgeri BC 7, Enterobacter cloacae ATCC 13 047, E. coli R^+ TEM(β-lactamase carrier) and K. pneumoniae 1088 E (β-lactamase carrier).
(§9) Table 1 which follows lists the minimum inhibitory concentrations (MIC) determined for typical representatives of the compounds according to the invention. These are the sodium salts of compounds of the formula I, where A=p-hydroxyphenyl and R is defined as follows: […]

[2] = tested on: Klebsiella pneumoniae BC 6; assay: as above; assay type: cell-based; conditions: BC6, K. pneum. BC 6, 18 to 20 hours at 37° C., read-out: minimum inhibitory concentration (MIC)
Method: as §1, §2, §3, §4, §5, §6, §7, §8, §9

[3] = tested on: K. pneumoniae 1088 E (β-lactamase carrier); assay: as above; assay type: cell-based; conditions: Klebsiella pneumoniae, K. pneum. 1088 E, 18 to 20 hours at 37° C., read-out: minimum inhibitory concentration (MIC)
Method: as §1, §2, §3, §4, §5, §6, §7, §8, §9

[4] = tested on: Serratia marcescens ATCC 13 880; assay: as above; assay type: cell-based; conditions: Serr. marc. ATCC 13880, 18 to 20 hours at 37° C., read-out: minimum inhibitory concentration (MIC)
Method: as §1, §2, §3, §4, §5, §6, §7, §8, §9

[5] = tested on: Enterobacter cloacae ATCC 13 047; assay: as above; assay type: cell-based; conditions: Eb. cloac. ATCC 13047, 18 to 20 hours at 37° C., read-out: minimum inhibitory concentration (MIC)
Method: as §1, §2, §3, §4, §5, §6, §7, §8, §9

[6] = tested on: Escherichia coli ATCC 11 775; assay: as above; assay type: cell-based; conditions: E. coli ATCC 11775, 18 to 20 hours at 37° C., read-out: minimum inhibitory concentration (MIC)
Method: as §1, §2, §3, §4, §5, §6, §7, §8, §9

[7] = tested on: Klebsiella pneumoniae ATCC 10 031; assay: as above; assay type: cell-based; conditions: K. pneum. ATCC 10031, 18 to 20 hours at 37° C., read-out: minimum inhibitory concentration (MIC)
Method: as §1, §2, §3, §4, §5, §6, §7, §8, §9

[8] = tested on: E. coli R^+ TEM(β-lactamase carrier); assay: as above; assay type: cell-based; conditions: Escherichia coli, read-out: minimum inhibitory concentration (MIC)
Method: as §1, §2, §3, §4, §5, §6, §7, §8, §9

[9] = tested on: Proteus Mirabilis BC 17; assay: as above; assay type: cell-based; conditions: Prot. mir. BC 17, 18 to 20 hours at 37° C., read-out: minimum inhibitory concentration (MIC)
Method: as §1, §2, §3, §4, §5, §6, §7, §8, §9

[10] = tested on: 20 Serratia marcescens carrying β-lactamase; assay: In vitro activity against 20 Serratia marcescens carrying β-lactamase, compared with Temocillin; assay type: cell-based; conditions: Serr. marc. (20)
Method: as §1, §2, §3, §4, §5, §6

[11] = tested on: E. coli ATCC 11775; assay: In vivo test on experimental E. coli infection in mice; design: species or system E. coli; female mice of the NMRI strain; conditions: Escherichia coli, ATCC11775, sc, 168 h, subcutaneous, one treatment 1 hour post infectionem, observation period 7 days, read-out: ED50 (dose at which 50% of the animals survived)
Method: A number of the compounds according to the invention were tested in vivo on experimental infections in mice. E. coli ATCC 11775 were used as the pathogenic bacteria. An intraperitoneal infection was produced with 0.2 ml of a 5% mucin suspension of the bacteria. This corresponds to about 1.4×10^6 E. coli bacteria per mouse. Female mice of the NMRI strain were divided up into groups of 10 animals, two groups were untreated, the other groups were treated subcutaneously with various doses of the penicillin according to the invention, to determine the ED50 (dose at which 50% of the animals survived). One treatment was given (1 hour post infectionem).
In both cases, the observation period was 7 days. The results of these tests with 2 representatives of the penicillins according to the invention, compared with Temocillin, are shown in Table 3 which follows: […]

[12] = inoculum 5 × 10^4, read-out: Geometric Mean (MIC)
[13] = inoculum 5 × 10^4, read-out: MIC Range
[14] = inoculum 5 × 10^6, read-out: Geometric Mean (MIC)

Row | SMILES | MIC [1] [µg/mL] | MIC [2] [µg/mL] | MIC [3] [µg/mL] | MIC [4] [µg/mL] | MIC [5] [µg/mL] | MIC [6] [µg/mL] | MIC [7] [µg/mL] | MIC [8] [µg/mL] | MIC [9] [µg/mL] | MIC [10, 12] [µg/mL] | MIC [10, 13] [µg/mL] | MIC [10, 14] [µg/mL] | MIC ([10]; inoculum 5 × 10^6, read-out: MIC Range) [µg/mL] | ED50 [11] [mg/kg]
1 | CO[C@@]1(NC(=O)C(NC(=O)Nc2cnc(Nc3ccc(S(N)(=O)=O)cc3)nc2O)c2ccc(O)cc2)C(=O)N2[C@@H](C(=O)O)C(C)(C)S[C@@H]21 (stereo partly drawn) [A] | 2 (≈ 2.85 µM) | 1 (≈ 1.42 µM) | 4 (≈ 5.69 µM) | 1 (≈ 1.42 µM) | 1 (≈ 1.42 µM) | 1 (≈ 1.42 µM) | 1 (≈ 1.42 µM) | 1 (≈ 1.42 µM) | 1 (≈ 1.42 µM) | 2.8 (≈ 3.98 µM) | 2 to 8 (≈ 2.85 to 11.4 µM) | 10.2 (≈ 14.5 µM) | 4 to 32 (≈ 5.69 to 45.5 µM) | 4
2 | CO[C@@]1(NC(=O)C(NC(=O)Nc2cnc(NCc3ccc(S(N)(=O)=O)s3)nc2O)c2ccc(O)cc2)C(=O)N2[C@@H](C(=O)O)C(C)(C)S[C@@H]21 (stereo partly drawn) [C] | 2 (≈ 2.77 µM) | 1 (≈ 1.38 µM) | 8 (≈ 11.1 µM) | 2 (≈ 2.77 µM) | 1 (≈ 1.38 µM) | 1 (≈ 1.38 µM) | 1 (≈ 1.38 µM) | 2 (≈ 2.77 µM) | 0.12 (≈ 0.166 µM) |  |  |  |  | 
3 | CO[C@@]1(NC(=O)C(C(=O)O)c2ccsc2)C(=O)N2[C@@H](C(=O)O)C(C)(C)S[C@@H]21 (stereo partly drawn) [Compound E, Temocillin, reference compound] | 4 (≈ 9.65 µM) | 2 (≈ 4.83 µM) | 4 (≈ 9.65 µM) | 8 (≈ 19.3 µM) | 4 (≈ 9.65 µM) | 4 (≈ 9.65 µM) | 4 (≈ 9.65 µM) | 8 (≈ 19.3 µM) | 2 (≈ 4.83 µM) | 10.2 (≈ 24.6 µM) | 8 to 16 (≈ 19.3 to 38.6 µM) | 24.3 (≈ 58.6 µM) |  | > 20
4 | CO[C@@]1(NC(=O)C(NC(=O)Nc2cnc(NCc3ccc(S(N)(=O)=O)cc3)nc2O)c2ccc(O)cc2)C(=O)N2[C@@H](C(=O)O)C(C)(C)S[C@@H]21 (stereo partly drawn) [D] | 4 (≈ 5.58 µM) | 1 (≈ 1.4 µM) | 8 (≈ 11.2 µM) | 2 (≈ 2.79 µM) | 1 (≈ 1.4 µM) | 2 (≈ 2.79 µM) | 1 (≈ 1.4 µM) | 2 (≈ 2.79 µM) | 0.5 (≈ 0.698 µM) |  |  |  |  | 
